Structures can show the parent of a compound that is named as a salt.
Tested on: Acinetobacter baumannii ATCC17961
Assay: Antimicrobial susceptibility testing: 90% growth inhibitory concentration (IC90) determination
Assay type: cell-based
Conditions: 90% growth inhibitory concentration against Acinetobacter baumannii ATCC17961, Iso-Sensitest broth, OD 600 nm over 16 h; read-out: ATCC 17961 IC90
Description: The in vitro antimicrobial activity of the compounds was determined according to the following procedure: The assay used a 10-points Iso-Sensitest broth medium to measure quantitatively the in vitro activity of the compounds against Acinetobacter baumannii ATCC17961. Stock compounds in DMSO were serially twofold diluted (e.g. range from 10 to 0.0195 μM final concentration) in 384 wells microtiter plates and inoculated with 49 μL the bacterial suspension in Iso-Sensitest medium to have a final cell concentration of ˜5×10^(5) CFU/mL in a final volume/well of 50 μL/well. Microtiter plates were incubated at 35±2° C. Bacterial cell growth was determined with the measurement of optical density at λ=600 nm each min over a time course of 16 h. Growth inhibition was calculated during the logarithmic growth of the bacterial cells with determination of the concentration inhibiting 50% (IC50) and 90% (IC90) of the growth. Table 1 provides the 90% growth inhibitory concentrations (IC90) in micromoles per liter of the compounds of present invention obtained against the strain Acinetobacter baumannii ATCC17961.

Row | Compound | IC90
1 | Cn1c(-c2cn(-c3cc4ccccc4s3)nc2C(F)(F)F)cnc1C(=O)Nc1ccc(C(=O)N2CCN(C(=O)C3CC[N+](CC(=O)O)(CC4CNC4)CC3)CC2)c(Cl)c1 (stereo not drawn) [Example 95, 2-[1-(Azetidin-3-ylmethyl)-4-[4-[4-[[5-[1-(benzothiophen-2-yl)-3-(trifluoromethyl)pyrazol-4-yl]-1-methyl-imidazole-2-carbonyl]amino]-2-chloro-benzoyl]piperazine-1-carbonyl]piperidin-1-ium-1-yl]Acetic Acid; Formic Acid; Formate] | 1760 nM

Same assay, conditions: Acinetobacter baumannii, ATCC17961, 16 h, 90% growth inhibitory concentration against Acinetobacter baumannii ATCC17961, Iso-Sensitest broth, OD 600 nm over 16 h; read-out: ATCC 17961 IC90

Row | Compound | IC90
2 | Cn1c(-c2cn(-c3cc4[nH]c(C(=O)NCCO)cc4cn3)nc2C(F)(F)F)cnc1C(=O)Nc1ccc(C(=O)N2CCN(C(=O)[C@H]3CC[N@+](CC(=O)O)(CC4CNC4)CC3)CC2)c(Cl)c1 [Example 115, cis-2-[1-(azetidin-3-ylmethyl)-4-[4-[2-chloro-4-[[5-[1-[2-(2-hydroxyethylcarbamoyl)-1H-pyrrolo[3,2-c]pyridin-6-yl]-3-(trifluoromethyl)pyrazol-4-yl]-1-methyl-imidazole-2-carbonyl]amino]benzoyl]piperazine-1-carbonyl]piperidin-1-ium-1-yl]acetic acid. 1:1 2,2,2-trifluoroacetate] | 295 nM
3 | Cn1c(-c2cn(-c3ccc(N)cc3F)nc2C(F)(F)F)cnc1C(=O)Nc1ccc(C(=O)N2CCN(C(=O)C3CC[N+](CCCC(=O)O)(CC4CNC4)CC3)CC2)c(Cl)c1 (stereo not drawn) [Example 181, 4-[4-[4-[4-[[5-[1-(4-amino-2-fluoro-phenyl)-3-(trifluoromethyl)pyrazol-4-yl]-1-methyl-imidazole-2-carbonyl]amino]-2-chloro-benzoyl]piperazine-1-carbonyl]-1-(azetidin-3-ylmethyl)piperidin-1-ium-1-yl]butanoic acid;formate] | 244 nM
4 | COc1ccc(-n2cc(-c3cnc(C(=O)Nc4ccc(C(=O)N5CCN(C(=O)C6CC[N+](CC(=O)O)(CC7CNC7)CC6)CC5)c(Cl)c4)n3C)c(C(F)(F)F)n2)cc1 (stereo not drawn) [Example 37, 2-[1-(azetidin-3-ylmethyl)-4-[4-[2-chloro-4-[[5-[1-(4-methoxyphenyl)-3-(trifluoromethyl)pyrazol-4-yl]-1-methyl-imidazole-2-carbonyl]amino]benzoyl]piperazine-1-carbonyl]piperidin-1-ium-1-yl]acetic acid. 1:1 formate] | 420 nM
5 | Cn1c(-c2cn(-c3ccc(N)cc3F)nc2C(F)(F)F)cnc1C(=O)Nc1ccc(C(=O)N2CCN(C(=O)C3CC[N+](C)(CC(=O)O)CC3)CC2)c(Cl)c1 (stereo not drawn) [Example 193, 2-[4-[4-[4-[[5-[1-(4-amino-2-fluoro-phenyl)-3-(trifluoromethyl)pyrazol-4-yl]-1-methyl-imidazole-2-carbonyl]amino]-2-chloro-benzoyl]piperazine-1-carbonyl]-1-methyl-piperidin-1-ium-1-yl]acetic acid;iodide] | 371 nM
6 | Cn1c(-c2cn(-c3cc4[nH]cc(C(=O)N5CCNCC5)c4cn3)nc2C(F)(F)F)cnc1C(=O)Nc1ccc(C(=O)N2CCN(C(=O)[C@H]3CC[N@+](CC(=O)O)(CC4CNC4)CC3)CC2)c(Cl)c1 [Example 147, cis-2-[1-(azetidin-3-ylmethyl)-4-[4-[2-chloro-4-[[1-methyl-5-[1-[3-(piperazine-1-carbonyl)-1H-pyrrolo[3,2-c]pyridin-6-yl]-4-(trifluoromethyl)pyrazol-4-yl]imidazole-2-carbonyl]amino]benzoyl]piperazine-1-carbonyl]piperidin-1-ium-1-yl]acetic acid. 1:1 2,2,2-trifluoroacetate] | 181 nM

Further lines, results first:

Row | IC90 | Compound
7 | 682 nM | CNC(=O)n1ccc2nc(-n3cc(-c4cnc(C(=O)Nc5ccc(C(=O)N6CCN(C(=O)[C@H]7CC[N@+](CC(=O)O)(CC8CNC8)CC7)CC6)c(Cl)c5)n4C)c(C(F)(F)F)n3)ccc21 [Example 143, cis-2-[1-(azetidin-3-ylmethyl)-4-[4-[2-chloro-4-[[1-methyl-5-[1-[1-(methylcarbamoyl)pyrrolo[3,2-b]pyridin-5-yl]-3-(trifluoromethyl)pyrazol-4-yl]imidazole-2-carbonyl]amino]benzoyl]piperazine-1-carbonyl]piperidin-1-ium-1-yl]acetic acid. 1:1 formate]
8 | 217 nM | C[C@@H](O)c1cc2nc(-n3cc(-c4cnc(C(=O)Nc5ccc(C(=O)N6CCN(C(=O)[C@H]7CC[N@+](CC(=O)O)(CC8CNC8)CC7)CC6)c(Cl)c5)n4C)c(C(F)(F)F)n3)ccc2[nH]1 [Example 150, cis-2-[1-(azetidin-3-ylmethyl)-4-[4-[2-chloro-4-[[5-[1-[2-[(1R)-1-hydroxyethyl]-1H-pyrrolo[3,2-b]pyridin-5-yl]-3-(trifluoromethyl)pyrazol-4-yl]-1-methyl-imidazole-2-carbonyl]amino]benzoyl]piperazine-1-carbonyl]piperidin-1-ium-1-yl]acetic acid;formate]
9 | 720 nM | Cn1c(-c2cn(-c3ccc(N)c(N)n3)nc2C(F)(F)F)cnc1C(=O)Nc1ccc(C(=O)N2CCN(C(=O)C3CC[N+](CC(=O)O)(CC4CNC4)CC3)CC2)c(Cl)c1 (stereo not drawn) [Example 67, 2-[1-(azetidin-3-ylmethyl)-4-[4-[2-chloro-4-[[5-[1-(5,6-diamino-2-pyridyl)-3-(trifluoromethyl)pyrazol-4-yl]-1-methyl-imidazole-2-carbonyl]amino]benzoyl]piperazine-1-carbonyl]piperidin-1-ium-1-yl]acetic acid. 1:1 2,2,2-trifluoroacetate]
10 | 430 nM | CC(C)Nc1ccc(-n2cc(-c3cnc(C(=O)Nc4ccc(C(=O)N5CCN(C(=O)C6CC[N+](CC(=O)O)(CC7CNC7)CC6)CC5)c(Cl)c4)n3C)c(C(F)(F)F)n2)nc1 (stereo not drawn) [Example 40, 2-[1-(azetidin-3-ylmethyl)-4-[4-[2-chloro-4-[[5-[1-[5-(isopropylamino)-2-pyridyl]-3-(trifluoromethyl)pyrazol-4-yl]-1-methyl-imidazole-2-carbonyl]amino]benzoyl]piperazine-1-carbonyl]piperidin-1-ium-1-yl]acetic acid. 1:1 formate]
11 | 660 nM | Cn1c(-c2cn(-c3ccc(N)cn3)nc2C(F)(F)F)cnc1C(=O)Nc1ccc(C(=O)N2CCN(C(=O)C3CC[N+](CCCC(=O)O)(CC4CNC4)CC3)CC2)c(Cl)c1 (stereo not drawn) [Example 60, 4-[4-[4-[4-[[5-[1-(5-amino-2-pyridyl)-3-(trifluoromethyl)pyrazol-4-yl]-1-methyl-imidazole-2-carbonyl]amino]-2-chloro-benzoyl]piperazine-1-carbonyl]-1-(azetidin-3-ylmethyl)piperidin-1-ium-1-yl]butyric acid. 1:1 2,2,2-trifluoroacetate]
12 | 466 nM | Cn1c(-c2cn(-c3ccc4c(cc(CO)n4CC#N)n3)nc2C(F)(F)F)cnc1C(=O)Nc1ccc(C(=O)N2CCN(C(=O)[C@H]3CC[N@+](CC(=O)O)(CC4CNC4)CC3)CC2)c(Cl)c1 [Example 169, cis-2-[1-(azetidin-3-ylmethyl)-4-[4-[2-chloro-4-[[5-[1-[1-(cyanomethyl)-2-methylol-pyrrolo[3,2-b]pyridin-5-yl]-3-(trifluoromethyl)pyrazol-4-yl]-1-methyl-imidazole-2-carbonyl]amino]benzoyl]piperazine-1-carbonyl]piperidin-1-ium-1-yl]acetic acid. 1:1 2,2,2-trifluoroacetate]
